{"source": "patent US20240173440A1", "about": "“HIGH PURITY COPPER RADIOPHARMACEUTICAL COMPOSITIONS AND DIAGNOSTIC AND THERAPEUTIC USES THEREOF” (Nuclidium AG, priority 2022, published 2024)", "key": {"[1]": {"target": "T1, SST2 (Homo sapiens (Human), UniProt P30874)", "T1 sequence (P30874 whole entry)": "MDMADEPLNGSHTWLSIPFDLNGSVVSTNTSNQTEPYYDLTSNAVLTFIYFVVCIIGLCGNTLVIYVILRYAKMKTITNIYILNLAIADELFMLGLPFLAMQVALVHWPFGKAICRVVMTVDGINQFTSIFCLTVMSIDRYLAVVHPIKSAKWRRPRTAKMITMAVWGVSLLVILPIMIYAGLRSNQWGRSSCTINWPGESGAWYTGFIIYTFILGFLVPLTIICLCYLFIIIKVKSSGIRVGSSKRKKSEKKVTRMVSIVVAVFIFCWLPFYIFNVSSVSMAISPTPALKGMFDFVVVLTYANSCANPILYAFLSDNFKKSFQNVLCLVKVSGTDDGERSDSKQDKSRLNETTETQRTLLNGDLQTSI", "test": "Competitive binding assay (IC50) on HEK-SST2 cell membranes with 125I-Tyr-somatostatin-14", "conditions": "1 hour at 37° C., radioligand [^125I]-Tyr-somatostatin-14 0.05 nM, mean ± SD", "protocol": "Quantification of the free and bound radioligand was performed in a gamma-counter. The data were analyzed by GraphPad Prism 9 Software and the IC50 values were determined using the “log(inhibitor) vs response” equation based on the specific binding=total−non-specific binding.\nTable 18. IC50 values were determined by competitive assays. […] The results are expressed as means standard deviation (SD) from a minimum of two separate experiments, each in triplicates."}, "[2]": {"test": "Lipophilicity, log D by shake-flask method (1-octanol/PBS pH 7.4)", "type": "physicochemical", "conditions": "pH 7.4, shake-flask, Table 17, mean ± SD, read-out: log D(O/PBS pH 7.4)", "in_short": "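Radiotracer shaken 30 min in pre-saturated 1-octanol/PBS pH 7.4 (1:1), then centrifuged for phase separation. Radioactivity in each phase measured by gamma counting; log D reported as the average log of organic/PBS activity ratio.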"}, "[3]": {"target": "T1, SST2", "test": "Saturation binding on HEK-SST2 cell membranes", "conditions": "37° C.", "protocol": "Cell Membrane Preparation: HEK-SST2 cells were grown to confluence, mechanically disaggregated, washed with PBS (pH 7.4) and re-suspended in 20 mM of homogenization Tris buffer (pH 7.5) containing 1.3 mM EDTA, 0.25 M sucrose, 0.7 mM bacitracin, 5 μM soybean trypsin inhibitor, and 0.7 mM PMSF. The cells were homogenized using Ultra-Turrax, and the homogenized suspension was centrifuged at 500×g for 10 min at 4° C. The supernatant was collected in centrifuge tubes (Beckman Coulter Inc., Brea, CA, USA). This procedure was then repeated 5 times. The collected supernatant was centrifuged in an ultra-centrifuge (Beckman) at 4° C. for 55 min at 49,000×g. Then, the pellet was re-suspended in 10 mM ice-cold HEPES buffer (pH 7.5), aliquoted, and stored at −80° C. The protein concentration of those membrane suspensions was determined by the Bradford method, BSA as the standard.\nSaturation Experiment: The association profiles of [^61Cu]Cu-NODAGA-LM3 was studied at different concentrations, ranging from 0.075 to 10 nM, in HEK-SST2 cell membranes at 37° C. Each assay tube contained 170 μL of binding buffer (20 mM HEPES, pH 7.4, containing 4 mM μgCl2, 0.2% BSA, 20 μg/L bacitracin, 20 μg/L PMSF and 200,000 KIU/L aprotinin). […] The dissociation constant (KD) and maximal binding capacity (Bmax) values were calculated using GraphPad Software Inc., Prism 7, San Diego, CA, USA (FIG. 37)"}, "[4]": {"tested_on": "HEK-SST2 xenografts", "test": "PET/CT imaging in HEK-SST2 xenografted mice", "type": "in vivo", "conditions": "0-60 min and 240 min", "protocol": "Tumor xenografted mice were injected intravenously into the tail vein with the tested radiotracer. […] Mice were anesthetized with 1.5% isoflurane and dynamic PET scans were acquired during 1 hour upon injection of the radiotracer. The mice were euthanized by CO2 at 4 hours p.i., the bladder was mechanically emptied, and static PET scans were acquired for 30 min. PET images were acquired using the R-CUBE PET scanner system (MOLECUBES, Gent, Belgium) and they were decay corrected and reconstructed with the VivoQuant software version 4.0. The CT was imaged supine, headfirst, using the NanoSPECT/CT™ scanner (Bioscan Inc.). Topograms and helical CT scans of the whole mouse were first acquired using the following parameters: X-ray tube current: 177 μA, X-ray tube voltage 45 kVp, 90 seconds and 180 frames per rotation, pitch 1. CT images were reconstructed using CTReco (version r1.146), with a standard filtered back projection algorithm (exact cone beam) and post-filtered (RamLak, 100% frequency cut-off), resulting in a pixel size of 0.2 mm. Co-registered PET/CT images were visualized using maximum intensity projection (MIP) with InVivoScope (version 1.43, Bioscan Inc.). The results are presented in the Examples that follow."}, "[5]": {"test": "in vivo", "conditions": "iv, 20 umol, total radioactivity", "method": "The tumors were allowed to grow for 1-3 weeks before commencement of the experiments.\nThe mice were randomly distributed in groups and euthanized at 1 and at 4 hours post-injection. The organs of interest were collected, rinsed, blotted, weighed and counted in a gamma counter. The results are expressed as percentage of injected activity per gram (% IA/g), representing the mean±standard deviation of n=4-8 mice per group and they were obtained by extrapolation from counts of an aliquot taken from the injected solution as standard.\nThe mice were randomly distributed in groups, injected with the radiotracer under investigation and euthanized at 1 and at 4 hours post-injection of the radiotracers under investigation. The organs of interest were collected, rinsed, blotted, weighed and counted in a gamma counter. The results are expressed as percentage of injected activity per gram (% IA/g), representing the mean±standard deviation of all mice per group and they were obtained by extrapolation from counts of an aliquot taken from the injected solution as standard.\nThe mice were randomly distributed in groups and euthanized at 4 hours post-injection. The organs of interest were collected, rinsed, blotted, weighed, and their respective radioactivity was counted in a gamma counter."}}, "data": [{"smiles": "CC(O)C1NC(=O)C(CCCCN)NC(=O)C(Cc2ccc(NC(N)=O)cc2)NC(=O)C(Cc2ccc(O)cc2)NC(=O)C(NC(=O)C(Cc2ccc(Cl)cc2)NC(=O)CCC(C(=O)O)N2CCN(CC(=O)O)CCN(CC(=O)O)CC2)CSSCC(C(=O)NC(Cc2ccc(O)cc2)C(N)=O)NC1=O", "note": "(stereo not drawn) [NODAGA-LM3]", "values": [{"measurement": "IC50", "setting": "[1]", "result": "17.8 ± 2", "unit": "nM"}]}, {"smiles": "C[C@@H](O)[C@@H]1NC(=O)[C@H](CCCCN)NC(=O)[C@@H](Cc2ccc(NC(N)=O)cc2)NC(=O)[C@H](Cc2ccc(O)cc2)NC(=O)[C@H](NC(=O)[C@H](Cc2ccc(Cl)cc2)NC(=O)CCC(C(=O)O)N2CCN(CC(=O)O)CCN(CC(=O)O)CC2)CSSC[C@@H](C(=O)N[C@H](Cc2ccc(O)cc2)C(N)=O)NC1=O", "note": "(stereo partly drawn) [[^61Cu]Cu-NODAGA-LM3, metal not drawn]", "values": [{"measurement": "logD", "setting": "[2]", "result": "-2.42 ± 0.04"}, {"measurement": "Kd", "setting": "[3]", "result": "1.41 to 2.92", "unit": "nM"}, {"measurement": "distribution pattern on PET/CT", "setting": "[4]", "result": "same distribution pattern"}, {"measurement": "tissue uptake at 4 h", "setting": "[5]; athymic nude Foxn1+Foxn1+, mouse, Biodistribution Adrenal", "result": "0.6 ± 0.15", "unit": "%ID/g"}, {"measurement": "tissue uptake at 4 h", "setting": "[5]; athymic nude Foxn1+Foxn1+, mouse, Biodistribution Blood", "result": "0.11 ± 0.02", "unit": "%ID/g"}, {"measurement": "tissue uptake at 4 h", "setting": "[5]; athymic nude Foxn1+Foxn1+, mouse, Biodistribution Heart", "result": "0.13 ± 0.02", "unit": "%ID/g"}, {"measurement": "tissue uptake at 4 h", "setting": "[5]; athymic nude Foxn1+Foxn1+, mouse, Biodistribution Intestine", "result": "0.43 ± 0.08", "unit": "%ID/g"}, {"measurement": "tissue uptake at 4 h", "setting": "[5]; athymic nude Foxn1+Foxn1+, mouse, Biodistribution Liver", "result": "0.44 ± 0.06", "unit": "%ID/g"}, {"measurement": "tissue uptake at 4 h", "setting": "[5]; athymic nude Foxn1+Foxn1+, mouse, Biodistribution Lung", "result": "0.32 ± 0.05", "unit": "%ID/g"}, {"measurement": "tissue uptake at 4 h", "setting": "[5]; athymic nude Foxn1+Foxn1+, mouse, Biodistribution Pancreas", "result": "0.43 ± 0.12", "unit": "%ID/g"}, {"measurement": "tissue uptake at 4 h", "setting": "[5]; athymic nude Foxn1+Foxn1+, mouse, Biodistribution Spleen", "result": "0.14 ± 0.01", "unit": "%ID/g"}, {"measurement": "tissue uptake at 4 h", "setting": "[5]; athymic nude Foxn1+Foxn1+, mouse, Biodistribution Stomach", "result": "0.68 ± 0.15", "unit": "%ID/g"}, {"measurement": "tissue uptake at 4 h", "setting": "[5]; athymic nude Foxn1, mouse, Biodistribution Bone", "result": "0.31 ± 0.07", "unit": "%ID/g"}, {"measurement": "tissue uptake at 4 h", "setting": "[5]; athymic nude Foxn1, mouse, Biodistribution Kidneys", "result": "4.59 ± 0.41", "unit": "%ID/g"}, {"measurement": "tissue uptake at 4 h", "setting": "[5]; athymic nude Foxn1, mouse, Biodistribution Muscle", "result": "0.06 ± 0.02", "unit": "%ID/g"}, {"measurement": "tissue uptake at 4 h", "setting": "[5]; athymic nude Foxn1, mouse, Biodistribution Pituitary", "result": "2.96 ± 0.62", "unit": "%ID/g"}, {"measurement": "tissue uptake at 4 h", "setting": "[5]; athymic nude Foxn1, mouse, Biodistribution SSTR2-tumor", "result": "20.4 ± 4.2", "unit": "%ID/g"}]}]}
